According to US20230212274A1, “METHOD FOR TREATING ASTHMA OR ALLERGIC DISEASE” (THE CHILDREN'S MEDICAL CENTER CORPORATION, priority 2020, published 2023):
“Also recorded” adds a separate entry of the source.

Key:
[1] = test system: Notch4 expression on differentiating iTreg cells; assay: in vitro iTreg cell differentiation: OT-II T cells co-cultured with OVA323-339- or OVA323-339+UFP-pulsed alveolar macrophages, Notch4 by flow cytometry; format: cell-based, mouse; details: for Notch4 expression on differentiating iTreg cells: cytokine added to co-cultures with OVA323-339 / OVA323-339+UFP-pulsed alveolar macrophages
From the text: (§1) FIGS. 1A-1H show Notch4 expression on lung Treg cells in allergic airway inflammation. (FIG. 1A) RT-PCR of Notchl-4 transcripts in lung Treg and Teff cells isolated from PBS, OVA and OVA+UFP mouse groups. (FIG. 1B and FIG. 1C) Flow cytometric analysis, cell frequencies and mean fluorescence intensity (MFI) of Notch4 expression on lung Treg and Teff cells in the respective mouse groups. (FIG. 1D and FIG. 1E) Flow cytometric analysis and cell frequencies of Notch4 expression on OT-II^+CD4^+Foxp3^+ T cells generated in co-cultures with sham or OVA323-339+UFP-pulsed alveolar macrophages without or with IL-6 or anti-IL-6R mAb. (FIG. 1F) Flow cytometric analysis and cell frequencies of Notch4 expression in Helios^high and Helios^low lung Treg cells isolated from the respective mouse groups. (FIG. 1G) Flow cytometric analysis and cell frequencies of Notch4 expression on in vitro differentiated Treg cells derived from naive CD4^+ T cells isolated from Foxp3^YFPCre, Foxp3^YFPCreIl6r^Δ/Δ and Foxp3^YFPCreStat3^Δ/Δ mice and either untreated or treated with IL-6. (FIG. 1H) ChIP assays for the binding of STAT3 and control (IgG) antibodies to the Notch4 promoter in lung Treg cells of OVA+UFP-treated Foxp3^YFPCre, and Foxp3^YFPCreStat3^Δ/Δ mice. Each symbol represents one mouse. Numbers in flow plots indicate percentages. Error bars indicate SEM. Statistical tests for all panels: One-way ANOVA with Dunnett’s post hoc analysis. *P<0.05, **P<0.01, ***P<0.001, ****P<0.0001. Data representative of two or three independent experiments. (FIGS. 1A, 1D to 1F) n=5, (FIGS. 1B and 1C) n=15 and (FIGS. 1G and 1H) n=6 replicates per group.
FIGS. 7A-7E show Notch4 expression on lung Treg cells in allergic airway inflammation. (FIGS. 7A to 7C) Flow cytometric analysis, cell frequencies and mean fluorescence intensity (MFI) of Notch1, 2 and 3 expression on lung Treg and Teff cells in the respective mouse groups. (FIG. 7D) Cell frequencies of Notch4 expression on OT-II^+CD4^+Foxp3^+ T cells generated in co-cultures with sham or OVA323-339+UFP-pulsed alveolar macrophages without or with IL-1B, IL-25, IL-33, TSLP or TNFa. (FIG. 7E) ChIP assays for the binding of STAT3 and control (IgG) antibodies to the Notch1, 2 and 3 promoters in lung Treg cells of OVA+UFP-treated Foxp3^YFPCre, and Foxp3^YFPCreStat3^Δ/Δ mice. Each symbol represents one mouse. Numbers in flow plots indicate percentages. Error bars indicate SEM. Statistical tests for all panels: One-way ANOVA with Dunnett’s post hoc analysis. *P<0.05, **P<0.01, ***P<0.001, ****P<0.0001. Data representative of two or three independent experiments. N = 5-10 replicas per group.
To examine signals driving the induction of Notch4 on iTreg cells, the inventors employed an in vitro iTreg cell differentiation system in which OT-II T cell receptor (TCR) transgenic T cells, specific for the OVA323-339 peptide, were incubated with isolated primary alveolar macrophages (AM). […] Chromatin immunoprecipitation assays confirmed IL-6-dependent inducible binding of STAT3 to the Notch4 promoter in Treg cells, but not to those of Notch1, Notch2 or Notch3, which was abrogated by Stat3 deletion (FIG. 1I; […]).

[2] = test system: GDF15; assay: in vitro co-culture of GDF15-expressing Notch4high Treg cells with naive ILC2 cells; format: cell-based, mouse; details: Treg cells from lungs of OVA+UFP-treated mice
Procedure: (§2) FIGS. 5A-5L show Notch4 promotes ILC2 activation via a GDF15-dependent mechanism (FIG. 5A) Flow cytometric analysis and frequencies of IL13^+ ILC2 (Lineage^- T1/ST2^+ cells) in mice of respective genotypes treated as indicated. (FIG. 5B and FIG. 5C) In vitro suppression assays of ILC2 cells isolated from OVA+UFP-treated Foxp3^YFPCre mice and incubated with Treg cells of mice of the respective genotypes treated as indicated. Additional treatment of in vitro cultures with isotype control or anti-Notch4 mAb is also indicated. (FIG. 5D) Flow cytometric analysis and frequencies of GDF15^+ lung Treg cells of mice of the respective genotypes treated as indicated. (FIG. 5E) Flow cytometric analysis and frequencies of IL-13 expression in cultures of naive ILC2 stimulated with IL-33, GDF15 or both. (FIG. 5F) IL-13 expression in naive ILC2 incubated with Notch4^high Treg cells from OVA+UFP treated mice without or with blocking GDF15 peptide. (FIG. 5G and FIG. 5H) AHR and IL13^+ ILC2 frequencies in Foxp3^YFPCre mice treated as indicated and challenged in the presence of carrier protein or GDF15 blocking peptide. (FIG. 5I to FIG. 5K) AHR and frequencies of the indicated lung cell types in sham or OVA+UFP sensitized and challenged Foxp3^YFPCre and Foxp3^YFPCreNotch4^Δ/Δ mice treated with recombinant GDF15, as indicated. Each symbol represents an independent sample. […]

[3] = test system: allergic airway inflammation; assay: OVA+UFP allergic airway inflammation in mice, intra-tracheal instillation; format: in vivo, mouse
Procedure: FIGS. 5A-5L show Notch4 promotes ILC2 activation via a GDF15-dependent mechanism (FIG. 5A) Flow cytometric analysis and frequencies of IL13^+ ILC2 (Lineage^- T1/ST2^+ cells) in mice of respective genotypes treated as indicated. (FIG. 5B and FIG. 5C) In vitro suppression assays of ILC2 cells isolated from OVA+UFP-treated Foxp3^YFPCre mice and incubated with Treg cells of mice of the respective genotypes treated as indicated. Additional treatment of in vitro cultures with isotype control or anti-Notch4 mAb is also indicated. (FIG. 5D) Flow cytometric analysis and frequencies of GDF15^+ lung Treg cells of mice of the respective genotypes treated as indicated. (FIG. 5E) Flow cytometric analysis and frequencies of IL-13 expression in cultures of naive ILC2 stimulated with IL-33, GDF15 or both. (FIG. 5F) IL-13 expression in naive ILC2 incubated with Notch4^high Treg cells from OVA+UFP treated mice without or with blocking GDF15 peptide. (FIG. 5G and FIG. 5H) AHR and IL13^+ ILC2 frequencies in Foxp3^YFPCre mice treated as indicated and challenged in the presence of carrier protein or GDF15 blocking peptide. (FIG. 5I to FIG. 5K) AHR and frequencies of the indicated lung cell types in sham or OVA+UFP sensitized and challenged Foxp3^YFPCre and Foxp3^YFPCreNotch4^Δ/Δ mice treated with recombinant GDF15, as indicated. Each symbol represents an independent sample. Numbers in flow plots indicate percentages. Error bars indicate SEM. Statistical tests: two-way ANOVA with Sidak’s post hoc analysis (FIGS. 5A to 5D, 5G and 5I); One-way ANOVA with Dunnett’s post hoc analysis (FIGS. 5E and 5F, 5H and 5J). *P<0.05, ***P<0.001, ****P<0.0001. Data representative of two or three independent experiments. n=5-15 mice per group.
(FIG. 18A) Representative PAS-stained sections of lung tissues isolated from Foxp3^YFPCre and Foxp3^YFPCreNotch4^Δ/Δ with either PBS or OVA+UFP, the latter either alone or supplemented with GDF15, as indicated (200X magnification). (FIG. 18B) Inflammation score for the respective mouse groups. (FIG. 18C) Frequencies of ILC in the lungs of respective mouse groups. (FIG. 18D) IL-4, IL-13, and IL-17 expression in lung Foxp3^-CD4^+ Teff cells in the respective groups. (FIG. 18E) IL-4, IL-13, and IL-17 expression in lung Foxp3^+CD4^+ Treg cells in the respective groups. Error bars indicate SEM. Statistical tests. One-way ANOVA with Dunnett’s post hoc analysis. (FIGS. 18A-18E) **P<0.01, ***P<0.001, ****P<0.0001. Data representative of two or three independent experiments. n=10 mice per group.
(FIG. 19A) Representative PAS-stained sections of lung tissues isolated from Foxp3^YFPCre, treated with GDF15 blocking peptide segregated into PBS, or OVA+UFP-treated groups (200X magnification). (FIG. 19B) Inflammation score for the respective mouse groups. […]

[4] = test system: Notch4 expression on Treg cells; assay: Notch4 expression on peripheral blood Treg cells of a severe asthmatic subject before and after therapy; format: in vivo, human; details: post therapy
From the text: In contrast, Notch4 expression on circulating CD4^+ Teff cells was low and remained relatively flat as a function of asthma severity (FIG. 6B). Also, expression of Notchl-3 on Treg and Teff cells was not increased in asthmatics as compared to control subjects (FIGS. 17A-17I). Notch4 expression was restricted to the Helios^low iTreg cell subpopulation (FIG. 6C). […] Also, there were increased concentrations of GDF 15 in the sera of moderate and severe asthmatics that positively correlated with circulating Treg cell Notch4 expression (FIG. 6F).

[5] = test system: Notch4 on differentiating Treg cells; assay: antigen presenting cell-free in vitro iTreg cell differentiation (anti-CD3+anti-CD28 mAbs, TGF-β1); format: cell-based, mouse; details: naive T cells
From the text: as §1, with “Statistical tests for all panels: One-way ANOVA with Dunnett’s post hoc analysis. *P<0.05, **P<0.01, ***P<0.001, ****P<0.0001. Data representative of two or three independent experiments. (FIGS. 1A, 1D to 1F) n=5, (FIGS. 1B and 1C) n=15 and (FIGS. 1G and 1H) n=6 replicates per group.” left out

[6] = test system: IL-13 expression in naive ILC2; assay: in vitro cultures of ILC2 derived from naive mice stimulated with GDF15, IL-33 or both; format: cell-based, mouse
Procedure: as §2

[7] = OVA+UFP treated Foxp3YFPCreNotch4Δ/Δ mice, intra-tracheal instillation

IL-1β: cytokine added to cell cultures
Notch4 expression on differentiating iTreg cells [1]: not

TNFa
Notch4 expression on differentiating iTreg cells [1]: not

GDF15 blocking peptide: GDF15 inhibitory peptide, KTSLHRLKPDTVPAPC (SEQ ID NO: 1; amino acids 258-273 of the full length GDF15 gene product) (listed as Homo sapiens)
upregulation of IL13 expression in naive ILC2 by Notch4high Treg cells [2]: reversed | AHR, tissue inflammation, IL-4 and IL-13 expression in Teff cells (allergic airway inflammation) ([3]; OVA+UFP treated Foxp3YFPCre mice, instillation): downregulated the aforementioned changes; also recorded: attenuates allergic airway inflammation

Tocilizumab: anti-IL-6R mAb (anti-IL-6Ra chain mAb)
Notch4 expression on patient Treg cells [4]: decreased Notch4 expression | Notch4 expression on patient Treg cells ([4]; listed as tocilizumab): substantially attenuated Notch4 expression

TSLP: cytokine added to cell cultures
Notch4 expression on differentiating iTreg cells [1]: not

IL-6: interleukin-6 cytokine added to cell cultures
Notch4 expression on differentiating iTreg cells [1]: super-induction of Notch4 expression | Notch4 on differentiating Treg cells [5]: induced Notch4 on differentiating Treg cells

B1: IL-33: cytokine added to cell cultures (protein, UniProt O95760 1-270, looked up)
Interleukin-33: MKPKMKYSTNKISTAKWKNTASKALCFKLGKSQQKAKEVCPMYFMKLRSGLMIKKEACYFRRETTKRPSLKTGRKHKRHLVLAACQQQSTVECFAFGISGVQKYTRALHDSSITGISPITEYLASLSTYNDQSITFALEDESYEIYVEDLKKDEKKDKVLLSYYESQHPSNESGDGVDGKMLMVTLSPTKDFWLHANNKEHSVELHKCEKPLPDQAFFVLHNMHSNCVSFECKTDPGVFIGVKDNHLALIKVDSSENLCTENILFKLSET
Notch4 expression induced by IL-6 ([1]; added together with IL-6): further upregulated the expression of Notch4 | Notch4 expression on differentiating iTreg cells [1]: did not induce Notch4 on its own

B2: recombinant GDF15: recombinant cytokine growth and differentiation factor 15, secreted ligand of the TGF-beta superfamily (protein, UniProt Q99988 195-308, looked up)
Growth/differentiation factor …: ARARNGDHCPLGPGRCCRLHTVRASLEDLGWADWVLSPREVQVTMCIGACPSQFRAANMHAQIKTSLHRLKPDTVPAPCCVPASYNPMVLIQKTDTGVSLQTYDDLLAKDCHCI
IL-13 expression in ILC2 derived from naive mice ([6]; alone): upregulated IL-13 expression alone | IL-13 expression in ILC2 derived from naive mice ([6]; in combination with IL-33): especially in synergy with IL-33 | AHR and tissue inflammation [3, 7]: upregulated the AHR and tissue inflammation | IL-4 and IL-13 expression in Teff cells [3, 7]: increasing IL-4 and IL-13 expression in Teff cells | AHR and tissue inflammation ([3]; OVA+UFP treated Foxp3YFPCreNotch4Δ/Δ mice, intra-tracheal instillation, listed as GDF15): restores airway inflammation

B3: IL-25: cytokine added to cell cultures (protein, UniProt Q9H293 33-177, looked up)
Interleukin-25: YSHWPSCCPSKGQDTSEELLRWSTVPVPPLEPARPNRHPESCRASEDGPLNSRAISPWRYELDRDLNRLPQDLYHARCLCPHCVSLQTGSHMDPRGNSELLYHNQTVFYRRPCHGEKGTHKGYCLERRLYRVSLACVCVRPRVMG
Notch4 expression on differentiating iTreg cells [1]: not
